Patent US20260166159A1, “KRAS G12D DEGRADATION AGENT, AND PREPARATION METHOD AND USE THEREFOR” (LEADINGTAC PHARMACEUTICAL (SHAOXING) CO., LTD., priority 2022, published 2026)

What was measured:
KRAS-G12D = biological target: T1, KRAS-G12D (Homo sapiens, UniProt P01116, G12D); assay: KRAS-G12D degradation assay (Western Blot), A-427 cells; assay type: cell-based; conditions: A427 cells, 24 h; for Dmax: A-427
T1 construct: endogenous in cells; host or cells: A-427 (ATCC), AGS, AsPc-1, Panc 04.03
Description: The degradation effects of the compounds on KRAS-G12D were investigated on KRAS G12D mutant human lung cancer cell A-427 (ATCC), KRAS G12D mutant human gastric cancer cell AGS, KRAS G12D mutant human metastatic pancreatic cancer cell AsPc-1, and KRAS G12D mutant human pancreatic adenocarcinoma cell Panc 04.03. The specific procedures were as follows: 0.95 mL of cells were seeded into each well of a 24-well cell culture plate to achieve a cell density of 5×10^5 cells/well; and the cell plate was incubated in an incubator at 37° C. with 5% CO2 overnight. Then 50 μL of the compound solution after dilution was added to each of the wells with the corresponding cells, so that the final concentration of the compound was in a range of 0.03-3000 nM. The final concentration of DMSO was 0.25%. After the compounds were added, the cell plate was incubated in the incubator at 37° C. with 5% CO2 for 24 h. The culture medium in the 24-well cell culture plate was removed, and the plate was washed twice with 1×PBS (KeyGEN). 120 μL of RIPA (strong) lysis buffer (Beyotime) supplemented with 1 mM phenylmethylsulfonyl fluoride, a protease inhibitor mixture (Beyotime), and a protease phosphatase inhibitor mixture (Beyotime) was added to lyse adherent A-427 cells at the bottom of the cell culture plate. After the plate was left to stand on ice for 30 min, the protein lysate in each well was transferred to a 1.5 mL centrifuge tube and centrifuged at 15000 g for 20 min at 4° C. The cell lysate supernatants after centrifugation were cryopreserved in a refrigerator at −80° C. for later use.
After the samples of the cell lysate supernatants that had been prepared were thawed from the refrigerator at −80° C., the total protein concentrations of the cell lysates were determined using a BCA protein quantification kit (Tiangen). The total protein concentrations of the samples were then adjusted to 0.5 μg/μL with PBS and 5×SDS-PAGE protein loading buffer (Beyotime), and the samples were incubated in a water bath at 100° C. for 15 min. The samples were then incubated in an ice bath for 5 min and centrifuged at 14000 g for 1 min at 4° C., and the supernatants were mixed well as loading samples for the Western Blot assay. The samples were loaded into wells of a 10% precast gel (KeyGEN) with a loading volume of 10 μL (total protein: 5 μg), a sufficient Tris-MOPS-SDS running buffer (Adamas) was added, and then electrophoresis was performed at a constant voltage of 120 V for 55 min. After the electrophoresis, the proteins on the gel were transferred to PVDF membranes at a constant current of 250 mA for 55 min. After the membrane transfer, the PVDF membranes were incubated in 1× Quick Block blocking buffer (Beyotime) at room temperature for 30 min. After the blocking, the PVDF membranes were separately incubated at 4° C. overnight with the KRAS antibody (Abcam) diluted in a ratio of 1:1000 and the […] antibody (Abcam) diluted in a ratio of 1:2000 in 5% BSA as the diluent, and then washed with 1×TBST buffer (2.4 g of Tris, 8.8 g of NaCl, 1.5 mL of Tween 20, with pH adjusted to 7.4, with the volume brought to 1 L) 3 times for 10 min/time. The membranes were incubated with a secondary antibody (Abcam) diluted in 5% BSA at room temperature for 2 h, and then washed with 1×TBST buffer 3 times for 10 min/time. Finally, the membranes were incubated with Clarity Western ECL Substrate (BIO-RAD) for 5 min for luminescence and color development, and a ChemiScope 6200 Touch chemiluminescence imaging system (Clinx) was used for color development and protein mapping. Gray value analysis of the protein maps was performed using the chemiluminescence analysis software (Clinx). The gray correction value for each sample was calculated using the formula: gray correction value=(gray value of target protein/gray value of corresponding internal reference)×10^3. Then degradation rates were calculated by comparison with the gray correction value of the control group. […]

[1] = test system: KRAS G12D mutant human gastric cancer cell AGS; assay: 3D cell proliferation inhibition assay, AGS; assay type: cell-based; conditions: 168 h, 7 days, CTG, numeric values
Description: The inhibitory effects of the compounds on 3D cell proliferation were investigated on KRAS G12D mutant human lung cancer cell A427, KRAS G12D mutant human gastric cancer cell AGS, KRAS G12D mutant human metastatic pancreatic cancer cell AsPc-1, KRAS G12D mutant human pancreatic cancer cell Panc 04.03, KRAS G12D mutant human pancreatic cancer cell HPAC, KRAS G12V mutant human lung squamous cell carcinoma cell SW900, and KRAS WT human gastric cancer cell MKN1. The specific procedures were as follows:
10 μL of each compound solution diluted in a gradient was added to corresponding wells of a 96-well low-adsorption microplate (PerkinElmer), so that the final concentrations of the test compounds in the reaction system were in a range of 10000-0.026 nM. The final concentration of DMSO was 0.2%. Then 90 µL of cells were correspondingly seeded into each well to achieve a cell density of 5×10^2 cells/well (the cell density of SW900 was 5×10^1 cells/well, and the cell density of MKN1 was 1×10^3 cells/well). In addition to test wells for the test compounds, both a DMSO control well and a medium control well were set, with the DMSO control well containing DMSO and cells and the medium well containing only a medium. After the sample loading, the 96-well low-adsorption microplate was incubated in an incubator at 37° C. with 5% carbon dioxide for 7 days. After 7 days, the microplate was taken out, and 100 μL of CTG reagent (Promega) was added to each well. The plate was incubated at room temperature for 60 min and read on a microplate reader EnVision by the chemiluminescence program. The inhibition rates of the compounds at each concentration were calculated using the formula for the percentage inhibition of cell proliferation: inhibition rate %=(mean value of DMSO control group−single concentration reading value of compound)/(mean value of DMSO control group−mean value of medium control group)×100. Then non-linear curve fittings for logarithmic concentration-inhibition rate were performed by GraphPad Prism 8, and the IC50 values of the compounds were obtained (Table 5).

T1 sequence (P01116 1-188 isoform P01116-2 G12D): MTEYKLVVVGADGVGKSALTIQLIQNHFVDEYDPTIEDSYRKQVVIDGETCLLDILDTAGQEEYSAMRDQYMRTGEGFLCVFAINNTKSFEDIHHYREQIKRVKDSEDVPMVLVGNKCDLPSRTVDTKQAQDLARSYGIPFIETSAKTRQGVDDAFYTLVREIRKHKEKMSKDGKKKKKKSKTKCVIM

Row | SMILES | DC50 (KRAS-G12D; class symbols) | IC50 [1] | DC50 (KRAS-G12D; numeric values) | Dmax (KRAS-G12D; numeric values) | also measured
1 | C#Cc1c(F)ccc2cc(O)cc(-c3ncc4c(N5CC6CCC(C5)N6)nc(OCC5(CN6CC(CCN7CCC8(CC7)CCN(C(=O)c7ccc(OC)c(N9CCC(=O)NC9=O)c7)CC8)C6)CC5)nc4c3F)c12 [Example 41, 1-(5-(9-(2-(1-((1-(((4-(3,8-diazabicyclo[3.2.1]octan-3-yl)-7-(8-ethynyl-7-fluoro-3-hydroxynaphthalen-1-yl)-8-fluoropyrido[4,3-d]pyrimidin-2-yl)oxy)methyl)cyclopropyl)methyl)azetidin-3-yl)ethyl)-3,9-diazaspiro[5.5]undecane-3-carbonyl)-2-methoxyphenyl)dihydropyrimidine-2,4(1H,3H)-dione] | 1000 to 10000 nM | – | – | – | –
2 | C#Cc1c(F)ccc2cc(O)cc(-c3ncc4c(N5CC6CCC(C5)N6)nc(OCC5(CN6CCN(CCC7CC8(CCN(C(=O)c9ccc(OC)c(N%10CCC(=O)NC%10=O)c9)CC8)C7)CC6)CC5)nc4c3F)c12 [Example 43, 1-(5-(2-(2-(4-((1-(((4-(3,8-diazabicyclo[3.2.1]octan-3-yl)-7-(8-ethynyl-7-fluoro-3-hydroxynaphthalen-1-yl)-8-fluoropyrido[4,3-d]pyrimidin-2-yl)oxy)methyl)cyclopropyl)methyl)piperazin-1-yl)ethyl)-7-azaspiro[3.5]nonane-7-carbonyl)-2-methoxyphenyl)dihydropyrimidine-2,4(1H,3H)-dione] | ≤ 50 nM | – | – | – | Dmax (KRAS-G12D; class symbols): 50 to 80%
3 | C#Cc1c(F)ccc2cc(O)cc(-c3ncc4c(N5CC6CCC(C5)N6)nc(NCC5(CN6CCN(CC7CCC8(CC7)CCN(C(=O)c7ccc(Cl)c(N9CCC(=O)NC9=O)c7)CC8)CC6)CC5)nc4c3F)c12 [Example 46, 1-(5-(9-((4-((1-(((4-(3,8-diazabicyclo[3.2.1]octan-3-yl)-7-(8-ethynyl-7-fluoro-3-hydroxynaphthalen-1-yl)-8-fluoropyrido[4,3-d]pyrimidin-2-yl)amino)methyl)cyclopropyl)methyl)piperazin-1-yl)methyl)-3-azaspiro[5.5]undecane-3-carbonyl)-2-chlorophenyl)dihydropyrimidine-2,4(1H,3H)-dione] | ≤ 50 nM | – | – | – | Dmax (KRAS-G12D; class symbols): 80 to 100%
4 | C#Cc1c(F)ccc2cc(O)cc(-c3ncc4c(N5CC6CCC(C5)N6)nc(OCC5CCN(CCCC6CCC7(CC6)CCN(C(=O)c6ccc(Cl)c(N8CCC(=O)NC8=O)c6)CC7)CC5)nc4c3F)c12 [Example 68, 1-(5-(9-(3-(4-(((4-(3,8-diazabicyclo[3.2.1]octan-3-yl)-7-(8-ethynyl-7-fluoro-3-hydroxynaphthalen-1-yl)-8-fluoropyrido[4,3-d]pyrimidin-2-yl)oxy)methyl)piperidin-1-yl)propyl)-3-azaspiro[5.5]undecane-3-carbonyl)-2-chlorophenyl)dihydropyrimidine-2,4(1H,3H)-dione] | – | 24.8 nM | – | – | –
5 | CCc1cccc2cc(O)cc(-c3ccc4c(N5CC6CCC(C5)N6)nc(OCC5(CN6CCN(CC7CCC8(CC7)CCN(C(=O)c7ccc(C)c(N9CCC(=O)NC9=O)c7)CC8)CC6)CC5)nc4c3F)c12 [Example 70, 1-(5-(9-((4-((1-(((4-(3,8-diazabicyclo[3.2.1]octan-3-yl)-7-(8-ethyl-3-hydroxynaphthalen-1-yl)-8-fluoroquinazolin-2-yl)oxy)methyl)cyclopropyl)methyl)piperazin-1-yl)methyl)-3-azaspiro[5.5]undecane-3-carbonyl)-2-methylphenyl)dihydropyrimidine-2,4(1H,3H)-dione] | – | 15.5 nM | 14.6 nM | 87.3% | –
6 | CCc1cccc2cc(O)cc(-c3ccc4c(N5CC6CCC(C5)N6)nc(OCC5(CN6CCN(CC7CCC8(CC7)CCN(C(=O)c7ccc(OC)c(N9CCC(=O)NC9=O)c7)CC8)CC6)CC5)nc4c3F)c12 [Example 83, 1-(5-(9-((4-((1-(((4-(3,8-diazabicyclo[3.2.1]octan-3-yl)-7-(8-ethyl-3-hydroxynaphthalen-1-yl)-8-fluoroquinazolin-2-yl)oxy)methyl)cyclopropyl)methyl)piperazin-1-yl)methyl)-3-azaspiro[5.5]undecane-3-carbonyl)-2-methoxyphenyl)dihydropyrimidine-2,4(1H,3H)-dione] | – | – | 33.9 nM | 87.2% | –
7 | C#Cc1c(F)ccc2cc(O)cc(-c3ncc4c(N5C[C@@H]6C[C@H]5CN6)nc(OCC5(CN6CCN(CC7CCC8(CC7)CCN(C(=O)c7ccc(C)c(N9CCC(=O)NC9=O)c7)CC8)CC6)CC5)nc4c3F)c12 [Example 86, 1-(5-(9-((4-((1-(((4-((1S,4S)-2,5-diazabicyclo[2.2.1]heptan-2-yl)-7-(8-ethynyl-7-fluoro-3-hydroxynaphthalen-1-yl)-8-fluoropyrido[4,3-d]pyrimidin-2-yl)oxy)methyl)cyclopropyl)methyl)piperazin-1-yl)methyl)-3-azaspiro[5.5]undecane-3-carbonyl)-2-methylphenyl)dihydropyrimidine-2,4(1H,3H)-dione] | – | 97.5 nM | – | – | –
8 | C#Cc1c(F)ccc2cc(O)cc(-c3ncc4c(N5CC6CCC(C5)N6)nc(OCC5(CN6CC7CC(C6)N7CC6CCC7(CC6)CCN(C(=O)c6ccc(Cl)c(N8CCC(=O)NC8=O)c6)CC7)CC5)nc4c3F)c12 [Example 87, 1-(5-(9-((3-((1-(((4-(3,8-diazabicyclo[3.2.1]octan-3-yl)-7-(8-ethynyl-7-fluoro-3-hydroxynaphthalen-1-yl)-8-fluoropyrido[4,3-d]pyrimidin-2-yl)oxy)methyl)cyclopropyl)methyl)-3,6-diazabicyclo[3.1.1]heptan-6-yl)methyl)-3-azaspiro[5.5]undecane-3-carbonyl)-2-chlorophenyl)dihydropyrimidine-2,4(1H,3H)-dione] | – | 606 nM | – | – | –
9 | CCc1cccc2cc(O)cc(-c3ncc4c(N5CCC6CCC(C5)N6)nc(OCC5(CN6CCN(CC7CCC8(CC7)CCN(C(=O)c7ccc(OC)c(N9CCC(=O)NC9=O)c7)CC8)CC6)CC5)nc4c3F)c12 (stereo not drawn) [Example 88, 1-(5-(9-((4-((1-(((4-(3,9-diazabicyclo[4.2.1]nonan-3-yl)-7-(8-ethyl-3-hydroxynaphthalen-1-yl)-8-fluoropyrido[4,3-d]pyrimidin-2-yl)oxy)methyl)cyclopropyl)methyl)piperazin-1-yl)methyl)-3-azaspiro[5.5]undecane-3-carbonyl)-2-methoxyphenyl)dihydropyrimidine-2,4(1H,3H)-dione] | – | – | 0.65 nM | 89.5% | –
